This is an account of results in ChEMBL document CHEMBL1121476, “Diaryl amidine derivatives as oncornaviral DNA polymerase inhibitors” (J Med Chem, 1980).

Converted amounts (≈) assume the structure as drawn.

One assay concerns the target Gag-Pol polyprotein (Moloney murine leukemia virus isolate Shinnick) (UniProt P03355).
Description: Inhibitory dose against oncornaviral DNA polymerase activity of moloney murine leukemia virus
Turning to `CN(C)/C=N/c1ccc(-c2cc3cc(/N=C/N(C)C)ccc3o2)cc1`, the ID50 turned out to be 40 µg/mL (≈ 120 µM).
For `N=C(N)c1ccc(Oc2ccc(-c3cc4ccc(C(=N)N)cc4[nH]3)cc2)cc1`, the ID50 was 250 µg/mL (≈ 677 µM).
In turn, `N=C(N)c1ccc(-c2ccc(-c3ccc(C(=N)N)cc3)o2)cc1` showed an ID50 of 6 µg/mL (≈ 19.7 µM).
As to `C(=C\c1cc2cc(C3=NCCN3)ccc2o1)/c1ccc(Oc2ccc(C3=NCCN3)cc2)cc1`, the ID50 worked out at 9 µg/mL (≈ 20.1 µM).
As for `C(/C=C/c1cc2cc(C3=NCCN3)ccc2o1)=C\c1cc2cc(C3=NCCN3)ccc2o1`, the ID50 is 1 µg/mL (≈ 2.37 µM).
The same measure, in the same setting: the value for `N=C(N)c1ccc(-c2ccc(-c3ccc(C(=N)N)cc3)[nH]2)cc1` was 6.5 µg/mL (≈ 21.4 µM); that for `N=C(N)c1ccc2c(c1)[nH]c1c3cc(C(=N)N)ccc3sc21` was 1.2 µg/mL (≈ 3.9 µM).
On the same count and under the same terms, the value for `N=C(N)c1cccc(-c2cc3ccc(C(=N)N)cc3s2)c1` was 8 µg/mL (≈ 27.2 µM).
In the case of `N=C(N)c1ccc2[nH]c(/C=C/c3nc4cc(C(=N)N)ccc4[nH]3)nc2c1`, the ID50 is 100 µg/mL (≈ 290 µM).
Molecule `N=C(N)c1ccc2oc(C(=O)Nc3ccc(C4=NCCN4)cc3)cc2c1` registered an ID50 of 10 µg/mL (≈ 28.8 µM).
`Cc1c(/C=C/c2oc3ccc(C(=N)N)cc3c2C)oc2ccc(C(=N)N)cc12` returned an ID50 of 8 µg/mL (≈ 21.5 µM).
With `N=C(N)c1ccc(-c2[nH]c3cc(C(=N)N)ccc3c2N)cc1`, the ID50 was 12 µg/mL (≈ 41 µM).
In turn, `N=C(N)c1ccc(/C=C/C=C/C=C/c2cc3cc(C(=N)N)ccc3o2)cc1` showed an ID50 of 1.6 µg/mL (≈ 4.49 µM).
`N=C(N)c1ccc(-c2ccc(-c3ccc(C(=N)N)cc3)s2)cc1` came in with an ID50 of 1.2 µg/mL (≈ 3.75 µM).
Consider `C(=C\c1cc2cc(C3=NCCN3)ccc2o1)/c1cc2cc(C3=NCCN3)ccc2o1`, for which the ID50 was 1.1 µg/mL (≈ 2.77 µM).
`CC[n+]1c(-c2ccccc2)c2cc(N)ccc2c2ccc(N)cc21`: the ID50 amounted to 1.2 µg/mL.
`N=C(N)Nc1ccc(-c2cc3ccc(NC(=N)N)cc3s2)cc1` came in with an ID50 of 6 µg/mL (≈ 18.5 µM).
Take `N=C(N)c1ccc(/C=C/c2ccc(C(=N)N)cc2)cc1`: the ID50 came to 12 µg/mL (≈ 45.4 µM).
Regarding `N=C(N)c1cccc(-c2cc3ccc(C(=N)N)cc3[nH]2)c1`, the ID50 was 8 µg/mL (≈ 28.8 µM).
For `N=C(N)c1ccc2cc(C(=N)N)[nH]c2c1`, the ID50 was 70 µg/mL (≈ 348 µM).
As to `N=C(N)c1ccc(Oc2ccc(/C=C/c3cc4ccc(C(=N)N)cc4[nH]3)cc2)cc1`, the ID50 was found to be 1.4 µg/mL (≈ 3.54 µM).
As to `N=C(N)c1ccc(NC(=O)c2cc3cc(C(=N)N)ccc3o2)cc1`, the ID50 is 7.5 µg/mL (≈ 23.3 µM).
The same measure, in the same setting: the value for `N=C(N)c1ccc(N/N=N/c2ccc(-c3cc4cc(C(=N)N)ccc4o3)cc2)cc1` was 1.3 µg/mL (≈ 3.27 µM); that for `N=C(N)Nc1ccc(-c2cc3cc(NC(=N)N)ccc3o2)cc1` was 8 µg/mL (≈ 25.9 µM); that for `c1cc(-c2cc3ccc(C4=NCCN4)cc3[nH]2)ccc1C1=NCCN1` was 6 µg/mL (≈ 18.2 µM).
In turn, `c1cc(C2=NCCN2)ccc1Oc1ccc(-c2cc3ccc(C4=NCCN4)cc3[nH]2)cc1` displayed an ID50 of 1.4 µg/mL (≈ 3.32 µM).
Consider `N=C(N)c1ccc(-c2c[nH]c(-c3ccc(C(=N)N)cc3)n2)cc1`, for which the ID50 is 10 µg/mL (≈ 32.9 µM).
Same read-out and setting: the value for `N=C(N)c1ccc2oc(CCc3cc4cc(C(=N)N)ccc4o3)cc2c1` was 12 µg/mL (≈ 34.6 µM).
With `N=C(N)c1ccc2[nH]c(-c3cc4cc(C(=N)N)ccc4o3)cc2c1`, the ID50 is 0.9 µg/mL (≈ 2.84 µM).
`c1cc(Oc2ccc(-c3cc4ccc(C5=NCCN5)cc4[nH]3)cc2)cc(C2=NCCN2)c1` yielded an ID50 of 3 µg/mL (≈ 7.12 µM).
Turning to `N=C(N)c1ccc(C2Cc3cc(C(=N)N)ccc3S2(=O)=O)cc1` (centres undefined), the ID50 is 90 µg/mL (≈ 274 µM).
Turning to `CCN(CC)CCOc1ccc2c(c1)C(=O)c1cc(OCCN(CC)CC)ccc1-2`, the ID50 is 75 µg/mL (≈ 183 µM).
Regarding `c1cc(-c2cc3ccc(C4=NCCN4)cc3s2)ccc1C1=NCCN1`, the ID50 was determined as 1.2 µg/mL (≈ 3.46 µM).
Still for that read-out and setting: the value for `N=C(N)N/N=C/c1ccc2cc(-c3ccc(/C=N/N=C(N)N)cc3)sc2c1` was 2 µg/mL (≈ 5.28 µM).
In the case of `N=C(N)c1ccc2oc(/C=C/c3cc4ccc(C(=N)N)cc4o3)cc2c1`, the ID50 is 1.2 µg/mL (≈ 3.48 µM).
Turning to `N=C(N)c1ccc2cc(/C=C/c3cc4ccc(C(=N)N)cc4o3)oc2c1`, the ID50 was 1.6 µg/mL (≈ 4.65 µM).
As to `N=C(N)c1ccc2oc(/C=C/c3cc4ccc(C(=N)N)cc4[nH]3)cc2c1`, the ID50 came out at 1.1 µg/mL (≈ 3.2 µM).
Same read-out and setting: the value for `N=C(N)c1ccc(-c2cc3ccc(C(=N)N)cc3[nH]2)cc1` was 5 µg/mL (≈ 18 µM).
Turning to `C/C(=C\c1cc2cc(C(=N)N)ccc2o1)c1ccc(C(=N)N)cc1`, the ID50 was 4 µg/mL (≈ 12.6 µM).
As to `N=C(N)c1ccc2sc(/C=C/c3cc4cc(C(=N)N)ccc4s3)cc2c1`, the ID50 worked out at 11 µg/mL (≈ 29.2 µM).
Molecule `N=C(N)c1ccc2oc(/C=C/C=C/C=C/c3cc4cc(C(=N)N)ccc4o3)cc2c1` yielded an ID50 of 1.6 µg/mL (≈ 4.04 µM).
As to `N=C(N)c1ccc2oc(/C=C/c3cc4cc(C(=N)N)ccc4s3)cc2c1`, the ID50 amounted to 4 µg/mL (≈ 11.1 µM).
With `N=C(N)c1ccc(-c2cc3ccc(C(=N)N)cc3s2)cc1`, the ID50 amounted to 4 µg/mL (≈ 13.6 µM).
Molecule `N=C(N)c1ccc(Oc2ccc(/C=C/c3cc4cc(C(=N)N)ccc4o3)cc2)cc1` registered an ID50 of 14 µg/mL (≈ 35.3 µM).
`N=C(N)c1cccc(-c2cc3cc(C(=N)N)ccc3s2)c1` displayed an ID50 of 6 µg/mL (≈ 20.4 µM).
In turn, `CC(Cc1cc2cc(C(=N)N)ccc2o1)c1cc2cc(C(=N)N)ccc2o1` (centres undefined) gave an ID50 of 15 µg/mL (≈ 41.6 µM).
With `N=C(N)c1ccc(N/N=C/c2cc3cc(C(=N)N)ccc3o2)cc1`, the ID50 came out at 7.5 µg/mL (≈ 23.4 µM).
As to `N=C(N)c1cccc(Oc2ccc(-c3cc4ccc(C(=N)N)cc4[nH]3)cc2)c1`, the ID50 was determined as 6 µg/mL (≈ 16.2 µM).
Same read-out and setting: the value for `C(=C\c1cc2ccc(C3=NCCN3)cc2[nH]1)/c1ccc(Oc2ccc(C3=NCCN3)cc2)cc1` was 1.6 µg/mL (≈ 3.58 µM).
As to `N=C(N)c1ccc2oc(/C=C/C=C/c3cc4cc(C(=N)N)ccc4o3)cc2c1`, the ID50 came out at 3 µg/mL (≈ 8.1 µM).
With `N=C(N)c1ccc(-c2sc3ccc(C(=N)N)cc3c2N)cc1`, the ID50 worked out at 8 µg/mL (≈ 25.9 µM).
`C(/C=C/c1cc2cc(C3=NCCN3)ccc2o1)=C\c1ccc(C2=NCCN2)cc1`: the ID50 turned out to be 4 µg/mL (≈ 10.5 µM).
Molecule `N=C(N)c1ccc2oc(-c3c[nH]c(-c4cc5cc(C(=N)N)ccc5o4)n3)cc2c1` returned an ID50 of 2 µg/mL (≈ 5.2 µM).
For `N=C(N)c1ccc2oc(-c3ccc(N)cc3)cc2c1`, the ID50 is 270 µg/mL (≈ 1070 µM).
`C(=C\c1cc2cc(C3=NCCN3)ccc2o1)/c1ccc(C2=NCCN2)cc1` came in with an ID50 of 6 µg/mL (≈ 16.8 µM).
Regarding `N=C(N)c1ccc(/C=C/C=C/c2cc3cc(C(=N)N)ccc3o2)cc1`, the ID50 stood at 0.9 µg/mL (≈ 2.72 µM).
On the same count and under the same terms, the value for `N=C(N)c1ccc(/C=C/c2cc3ccc(C(=N)N)cc3[nH]2)cc1` was 6 µg/mL (≈ 19.8 µM); that for `C/C(=C\c1cc2cc(C(=N)N)ccc2o1)c1cc2cc(C(=N)N)ccc2o1` was 14 µg/mL (≈ 39.1 µM); that for `N=C(N)c1ccc(CCc2cc3cc(C(=N)N)ccc3o2)cc1` was 120 µg/mL (≈ 392 µM).
Molecule `O=C(Nc1ccc(C2=NCCN2)cc1)c1ccc(C(=O)Nc2ccc(C3=NCCN3)cc2)cc1` came in with an ID50 of 200 µg/mL (≈ 442 µM).
`N=C(N)Nc1ccc(-c2cc3cc(NC(=N)N)ccc3s2)cc1`: the ID50 stood at 11 µg/mL (≈ 33.9 µM).
Regarding `N=C(N)c1cccc(-c2cc3cc(C(=N)N)ccc3[nH]2)c1`, the ID50 turned out to be 4 µg/mL (≈ 14.4 µM).
In turn, `N=C(N)c1ccc(/C=C/c2cc3cc(C(=N)N)ccc3o2)cc1` displayed an ID50 of 8 µg/mL (≈ 26.3 µM).
Same read-out and setting: the value for `N=C(N)c1ccc(-c2nnc(-c3ccc(C(=N)N)cc3)o2)cc1` was 28 µg/mL (≈ 91.4 µM); that for `N=C(N)c1ccc2[nH]c(/C=C/c3cc4cc(C(=N)N)ccc4o3)cc2c1` was 1.4 µg/mL (≈ 4.08 µM).
The molecule `N=C(N)c1ccc(OCCCCCOc2ccc(C(=N)N)cc2)cc1` yielded an ID50 of 100 µg/mL (≈ 294 µM).
With `c1cc(-c2cc3cc(C4=NCCN4)ccc3s2)ccc1C1=NCCN1`, the ID50 is 2.8 µg/mL (≈ 8.08 µM).
On to `N=C(N)c1ccc(-c2cc3cc(C(=N)N)ccc3s2)cc1`, for which the ID50 turned out to be 5 µg/mL (≈ 17 µM).

Another assay deals with Nucleic Acid. The experiment in a line: Compound was evaluated for 50% inhibitory dose against oncornaviral DNA polymerase activity of moloney murine leukemia virus. In kind it is functional.
`N=C(N)c1ccc(/N=N/Nc2ccc(C(=N)N)cc2)cc1` gave an ID50 of 11 µg/mL (≈ 39.1 µM).
